Columns and labels:
Experiment in all cases: post-emergence herbicidal activity, greenhouse
Type in all cases: in vivo
Barnyardgrass = system: Barnyardgrass
From the text: (§1) A good grade of top soil is placed in aluminum pans having holes in the bottom and compacted to a depth of 0.95 to 1.27 cm. from the top of the pan. A predetermined number of seeds of each of several dicotyledonous and moncotyledonous annual plant species and/or vegetative propagules for the perennial plant species were placed on the soil and pressed into the soil surface. The seeds and/or vegetative propagules are covered with soil and leveled. The pans are then placed on a sand bench in the greenhouse and watered from below as needed. After the plants reach the desired age (two to three weeks), each pan, except for the control pans, is removed individually to a spraying chamber and sprayed by means of an atomizer at the rates noted. In the spray solution is an amount of an emulsifying agent mixture to give a spray solution or suspension which contains about 0.4% by weight of the emulsifier. The spray solution or suspension contains a sufficient amount of the candidate chemical in order to give application rates corresponding to those set forth in the tables. The pans were returned to the greenhouse and watered as before and the injury to the plants as compared to the control is observed at approximately two and four weeks and the results recorded. In the tables, WAT means "weeks after treatment."
(§2) The post-emergent herbicidal activity index used in Tables II and III is as follows:
(§3) The plant species utilized in these tests are identified by letter in accordance with the following legend: […]

Canada Thistle = settings: Table II, formulated immediately prior to treatment
From the text: as §1, §2, §3

Cocklebur = system: Cocklebur
From the text: as §1, §2, §3

Common Lambsquarters = system: Common Lambsquarters
From the text: as §1, §2, §3

Downy Brome = system: Downy Brome
From the text: as §1, §2, §3

Hemp Sesbania = settings: Table III, 2 WAT
From the text: as §1, §2, §3

Johnsongrass = settings: Table II, formulated immediately prior to treatment
From the text: as §1, §2, §3

Large Crabgrass = settings: Table III, 2 WAT
From the text: as §1, §2, §3

Morningglory = system: Morningglory
From the text: as §1, §2, §3

Panicum Spp = settings: Table III, 2 WAT
From the text: as §1, §2, §3

Pennsylvania Smartweed = system: Pennsylvania Smartweed
From the text: as §1, §2, §3

Quackgrass = settings: Table II, formulated immediately prior to treatment
From the text: as §1, §2, §3

Rice = settings: Table III, 2 WAT
From the text: as §1, §2, §3

Soybean = settings: Table III, 2 WAT
From the text: as §1, §2, §3

Sugar Beet = settings: Table III, 2 WAT
From the text: as §1, §2, §3

Velvetleaf = system: Velvetleaf
From the text: as §1, §2, §3

Wild Buckwheat = settings: Table III, 2 WAT
From the text: as §1, §2, §3

Yellow Nutsedge = settings: Table II, formulated immediately prior to treatment
From the text: as §1, §2, §3

[1] = Table II, 2 WAT, 5.6 kg/h, formulated immediately prior to treatment
[2] = Table II, 2 WAT, 11.2 kg/h, formulated immediately prior to treatment
[3] = Table II, 4 WAT, 5.6 kg/h, formulated immediately prior to treatment
[4] = Table II, 4 WAT, 11.2 kg/h, formulated immediately prior to treatment

CC(C)OC(=O)CNCP(=O)(O)O[Si](c1ccccc1)(c1ccccc1)C(C)(C)C [Ex. 2, Glycine, N((([(1,1-Dimethylethyl)Diphenylsilyl]oxy)-Hydroxyphosphinyl)-, methyl)-, 1-Methylethyl Ester]
Plant Response Index (K) (Barnyardgrass; [1]): 3 (75-99% inhibition)
Plant Response Index (K) (Barnyardgrass; [2]): 3 (75-99% inhibition)
Plant Response Index (K) (Barnyardgrass; [3]): 3 (75-99% inhibition)
Plant Response Index (K) (Barnyardgrass; [4]): 3 (75-99% inhibition)
Plant Response Index (K) (Barnyardgrass; Table III, 2 WAT, 1.1 kg/h): 1 (25-49% inhibition)
Plant Response Index (K) (Barnyardgrass; Table III, 2 WAT, 5.6 kg/h): 3 (75-99% inhibition)
Plant Response Index (A) (Canada Thistle; 2 WAT, 5.6 kg/h): 3 (75-99% inhibition)
Plant Response Index (A) (Canada Thistle; 2 WAT, 11.2 kg/h): 1 (25-49% inhibition)
Plant Response Index (A) (Canada Thistle; 4 WAT, 5.6 kg/h): 3 (75-99% inhibition)
Plant Response Index (A) (Canada Thistle; 4 WAT, 11.2 kg/h): 1 (25-49% inhibition)
Plant Response Index (B) (Cocklebur; [1]): 2 (50-74% inhibition)
Plant Response Index (B) (Cocklebur; [2]): 3 (75-99% inhibition)
Plant Response Index (B) (Cocklebur; [3]): 2 (50-74% inhibition)
Plant Response Index (B) (Cocklebur; [4]): 3 (75-99% inhibition)
Plant Response Index (B) (Cocklebur; Table III, 2 WAT, 1.1 kg/h): 0 (0-24% inhibition)
Plant Response Index (B) (Cocklebur; Table III, 2 WAT, 5.6 kg/h): 3 (75-99% inhibition)
Plant Response Index (E) (Common Lambsquarters; [1]): 3 (75-99% inhibition)
Plant Response Index (E) (Common Lambsquarters; [2]): 3 (75-99% inhibition)
Plant Response Index (E) (Common Lambsquarters; [3]): 2 (50-74% inhibition)
Plant Response Index (E) (Common Lambsquarters; [4]): 3 (75-99% inhibition)
Plant Response Index (E) (Common Lambsquarters; Table III, 2 WAT, 1.1 kg/h): 3 (75-99% inhibition)
Plant Response Index (E) (Common Lambsquarters; Table III, 2 WAT, 5.6 kg/h): 3 (75-99% inhibition)
Plant Response Index (J) (Downy Brome; [1]): 2 (50-74% inhibition)
Plant Response Index (J) (Downy Brome; [2]): 3 (75-99% inhibition)
Plant Response Index (J) (Downy Brome; [3]): 2 (50-74% inhibition)
Plant Response Index (J) (Downy Brome; [4]): 3 (75-99% inhibition)
Plant Response Index (J) (Downy Brome; Table III, 2 WAT, 1.1 kg/h): 0 (0-24% inhibition)
Plant Response Index (J) (Downy Brome; Table III, 2 WAT, 5.6 kg/h): 3 (75-99% inhibition)
Plant Response Index (R) (Hemp Sesbania; 1.1 kg/h): 0 (0-24% inhibition)
Plant Response Index (R) (Hemp Sesbania; 5.6 kg/h): 3 (75-99% inhibition)
Plant Response Index (I) (Johnsongrass; 2 WAT, 5.6 kg/h): 3 (75-99% inhibition)
Plant Response Index (I) (Johnsongrass; 2 WAT, 11.2 kg/h): 3 (75-99% inhibition)
Plant Response Index (I) (Johnsongrass; 4 WAT, 5.6 kg/h): 3 (75-99% inhibition)
Plant Response Index (I) (Johnsongrass; 4 WAT, 11.2 kg/h): 3 (75-99% inhibition)
Plant Response Index (T) (Large Crabgrass; 1.1 kg/h): 2 (50-74% inhibition)
Plant Response Index (T) (Large Crabgrass; 5.6 kg/h): 3 (75-99% inhibition)
Plant Response Index (D) (Morningglory; [1]): 2 (50-74% inhibition)
Plant Response Index (D) (Morningglory; [2]): 3 (75-99% inhibition)
Plant Response Index (D) (Morningglory; [3]): 2 (50-74% inhibition)
Plant Response Index (D) (Morningglory; [4]): 3 (75-99% inhibition)
Plant Response Index (D) (Morningglory; Table III, 2 WAT, 1.1 kg/h): 0 (0-24% inhibition)
Plant Response Index (D) (Morningglory; Table III, 2 WAT, 5.6 kg/h): 3 (75-99% inhibition)
Plant Response Index (S) (Panicum Spp; 1.1 kg/h): 0 (0-24% inhibition)
Plant Response Index (S) (Panicum Spp; 5.6 kg/h): 3 (75-99% inhibition)
Plant Response Index (F) (Pennsylvania Smartweed; [1]): 3 (75-99% inhibition)
Plant Response Index (F) (Pennsylvania Smartweed; [2]): 4 (100% inhibition)
Plant Response Index (F) (Pennsylvania Smartweed; [3]): 4 (100% inhibition)
Plant Response Index (F) (Pennsylvania Smartweed; [4]): 4 (100% inhibition)
Plant Response Index (F) (Pennsylvania Smartweed; Table III, 2 WAT, 1.1 kg/h): 3 (75-99% inhibition)
Plant Response Index (F) (Pennsylvania Smartweed; Table III, 2 WAT, 5.6 kg/h): 3 (75-99% inhibition)
Plant Response Index (H) (Quackgrass; 2 WAT, 5.6 kg/h): 3 (75-99% inhibition)
Plant Response Index (H) (Quackgrass; 2 WAT, 11.2 kg/h): 3 (75-99% inhibition)
Plant Response Index (H) (Quackgrass; 4 WAT, 5.6 kg/h): 3 (75-99% inhibition)
Plant Response Index (H) (Quackgrass; 4 WAT, 11.2 kg/h): 4 (100% inhibition)
Plant Response Index (O) (Rice; 1.1 kg/h): 0 (0-24% inhibition)
Plant Response Index (O) (Rice; 5.6 kg/h): 3 (75-99% inhibition)
Plant Response Index (L) (Soybean; 1.1 kg/h): 0 (0-24% inhibition)
Plant Response Index (L) (Soybean; 5.6 kg/h): 2 (50-74% inhibition)
Plant Response Index (M) (Sugar Beet; 1.1 kg/h): 0 (0-24% inhibition)
Plant Response Index (M) (Sugar Beet; 5.6 kg/h): 2 (50-74% inhibition)
Plant Response Index (C) (Velvetleaf; [1]): 2 (50-74% inhibition)
Plant Response Index (C) (Velvetleaf; [2]): 3 (75-99% inhibition)
Plant Response Index (C) (Velvetleaf; [3]): 2 (50-74% inhibition)
Plant Response Index (C) (Velvetleaf; [4]): 3 (75-99% inhibition)
Plant Response Index (C) (Velvetleaf; Table III, 2 WAT, 1.1 kg/h): 0 (0-24% inhibition)
Plant Response Index (C) (Velvetleaf; Table III, 2 WAT, 5.6 kg/h): 3 (75-99% inhibition)
Plant Response Index (Q) (Wild Buckwheat; 1.1 kg/h): 0 (0-24% inhibition)
Plant Response Index (Q) (Wild Buckwheat; 5.6 kg/h): 3 (75-99% inhibition)
Plant Response Index (G) (Yellow Nutsedge; 2 WAT, 5.6 kg/h): 2 (50-74% inhibition)
Plant Response Index (G) (Yellow Nutsedge; 2 WAT, 11.2 kg/h): 2 (50-74% inhibition)
Plant Response Index (G) (Yellow Nutsedge; 4 WAT, 5.6 kg/h): 3 (75-99% inhibition)
Plant Response Index (G) (Yellow Nutsedge; 4 WAT, 11.2 kg/h): 2 (50-74% inhibition)

From patent publication US4471131A, “Novel silyl esters of N-phosphonomethylglycine” (Monsanto Company, priority 1983, dated 1984)
